Laboratory results published in paper PMC4835159 (Journal of Medicinal Chemistry, 2016).
Values after ≈ are worked out from the molar mass of the structure shown. Like-named read-outs stand apart in the source and are kept apart here.

Tests used:
CYP125 = molecular target: T1, CYP125 (Mycobacterium tuberculosis, UniProt P9WPP1); assay: Single shot UV–vis binding mode assay on CYP125
T1 sequence (P9WPP1 1-433): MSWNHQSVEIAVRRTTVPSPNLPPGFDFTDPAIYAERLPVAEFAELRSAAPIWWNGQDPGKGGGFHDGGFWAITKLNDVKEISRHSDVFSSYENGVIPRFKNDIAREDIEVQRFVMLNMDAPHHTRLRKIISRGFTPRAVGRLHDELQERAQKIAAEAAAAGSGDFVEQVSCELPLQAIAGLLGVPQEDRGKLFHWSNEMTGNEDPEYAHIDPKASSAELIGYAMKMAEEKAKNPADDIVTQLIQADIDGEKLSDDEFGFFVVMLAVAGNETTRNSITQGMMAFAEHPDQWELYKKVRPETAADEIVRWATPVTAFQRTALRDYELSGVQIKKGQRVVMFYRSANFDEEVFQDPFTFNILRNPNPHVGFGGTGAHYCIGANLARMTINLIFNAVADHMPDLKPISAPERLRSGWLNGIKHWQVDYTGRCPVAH

CYP144TR = molecular target: T2, CYP144TR (Mycobacterium tuberculosis, UniProt P9WPL1)
T2 sequence (P9WPL1 31-434 limits assumed): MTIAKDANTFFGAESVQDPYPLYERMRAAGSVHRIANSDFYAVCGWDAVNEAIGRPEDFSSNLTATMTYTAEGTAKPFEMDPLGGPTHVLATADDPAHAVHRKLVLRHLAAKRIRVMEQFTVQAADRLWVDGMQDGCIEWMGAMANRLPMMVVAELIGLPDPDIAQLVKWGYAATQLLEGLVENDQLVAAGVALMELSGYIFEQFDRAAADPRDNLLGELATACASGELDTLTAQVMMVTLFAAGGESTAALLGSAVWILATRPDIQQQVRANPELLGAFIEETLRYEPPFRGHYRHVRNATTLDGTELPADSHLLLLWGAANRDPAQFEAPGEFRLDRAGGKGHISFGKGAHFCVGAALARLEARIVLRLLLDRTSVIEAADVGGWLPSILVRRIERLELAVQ

Mtb H37Rv = assay: Antimycobacterial activity assay (MIC90); assay type: cell-based, Mycobacterium tuberculosis; design: key to MIC90: “N” indicates that compounds did not produce any significant cell death within the tested concentration range; conditions: triplicate, 0–100 μM, 2 weeks
CYP121 [1] = molecular target: T3, CYP121 (Mycobacterium tuberculosis, UniProt P9WPP7); assay: Single shot UV–vis absorbance assay (Soret band shift, competition with type II inhibitor) on CYP121; assay type: binding; conditions: for Binding Mode, CYP121: analogues 100 μM or 1 mM, P450 2.5–5 μM
[2] = system: CYP1A (combined CYP1A1 and CYP1A2); assay: Human P450 inhibition in human liver microsomes, CYP1A (ethoxyresorufin); conditions: human
CYP121 [3] = molecular target: T3, CYP121; assay type: binding
CYP121 [4] = molecular target: T3, CYP121; assay: Native mass spectrometry of CYP121 with ligands; assay type: binding
CYP1A = assay: Human P450 inhibition in human liver microsomes, CYP1A (ethoxyresorufin); conditions: IC50 for CYP1A versus CYP121 KD
CYP143 = molecular target: T4, CYP143 (Mycobacterium tuberculosis, UniProt P9WPL3); assay: Single shot UV–vis binding mode assay on CYP143; conditions: analogues 100 μM or 1 mM, P450 2.5–5 μM
T4 construct: made in house
Method: UV–vis screening was performed using a CARY400 UV–vis spectrophotometer (Varian, CA, USA). Ligands were prepared as DMSO-d6 stock solutions (1–100 mM) and added to protein (5 μM) solutions (198 μL) or to buffer alone to give a final DMSO-d6 concentration of 1% v/v. CYP121 was prepared in 50 mM Tris-HCl (pH 7.2), 1 mM EDTA buffer. CYP125, CYP126, CYP142, CYP143, and CYP144 were prepared in 50 mM Tris-HCl (pH 7.5), 100 mM KCl buffer. CYP124 was prepared in 100 mM potassium phosphate (pH 7.0), 100 mM KCl buffer. Spectra were recorded between 800 and 250 nm at 25 °C. Any spectral interference from the inherent absorbance of added ligands/solvent was removed by subtracting spectra collected for protein-free samples of the same ligands/solvent in buffer. The difference in Soret wavelength maximum (Δλmax) of the respective P450s Soret band (λmax) in the presence of ligands compared to that obtained for a 1% v/v DMSO-d6 control was used to identify type I or type II heme-binding interactions. […]
The difference in the red-shift of the Soret band between competition assays and that found for the known type II ligand in the absence of competing ligands was used to determine competitive binding. Buffer control spectra were collected to account for any inherent absorbance of added ligands/solvent and all solutions were inspected and found to be free of precipitate. […]

native MS = molecular target: the molecule itself; assay: native MS

T4 sequence (P9WPL3 whole entry): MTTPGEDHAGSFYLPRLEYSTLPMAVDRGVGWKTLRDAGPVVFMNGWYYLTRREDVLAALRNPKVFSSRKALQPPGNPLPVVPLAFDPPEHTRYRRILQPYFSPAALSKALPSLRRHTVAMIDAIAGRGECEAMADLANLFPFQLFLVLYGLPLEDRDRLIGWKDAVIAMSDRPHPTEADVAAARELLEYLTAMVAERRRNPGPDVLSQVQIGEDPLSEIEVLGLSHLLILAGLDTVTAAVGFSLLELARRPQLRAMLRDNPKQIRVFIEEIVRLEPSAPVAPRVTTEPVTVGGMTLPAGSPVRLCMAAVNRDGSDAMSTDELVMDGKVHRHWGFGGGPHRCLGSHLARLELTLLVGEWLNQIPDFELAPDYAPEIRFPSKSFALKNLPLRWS

`Nc1cccc(-c2cccc(-c3c(-c4ccc(O)cc4)n[nH]c3N)c2)c1` [25a, 4-(5-Amino-4-(3′-amino-[1,1′-biphenyl]-3-yl)-1H-pyrazol-3-yl)phenol] was tested, and the “Binding Mode, CYP125” value (CYP125) was “N”, the “Binding Mode, CYP144TR” value (CYP144TR) was “N” and the MIC90 (Mtb H37Rv; Mycobacterium tuberculosis, 336 h, read-out: MIC90) was 100 µM (≈ 34.2 µg/mL). For the same molecule, the “shifts in the CYP121 optical spectrum” value (CYP121 [1]; UV–vis spectroscopy) was “type II shifts”, the “Δλmax (type II shift)” value (CYP121 [1]; ligand 100 μM, CYP121) was “+5.0 nm” and the selectivity ratio [2] was roughly 15000. The “LE (ligand efficiency)” value (CYP121 [3]) was 0.41, the “Monomer (%) of CYP121” value (CYP121 [4]; Protein-Ligand Ratio 1:0.5) was 14% and the “ligand binding stoichiometry, CYP121 Dimer” value (CYP121 [4]; Protein-Ligand Ratio 1:0.5) was 1. The “ligand binding stoichiometry, CYP121 Monomer” value (CYP121 [4]; Protein-Ligand Ratio 1:0.5) was 1, the “Monomer (%) of CYP121” value (CYP121 [4]; Protein-Ligand Ratio 1:1) was 13% and the “ligand binding stoichiometry, CYP121 Dimer” value (CYP121 [4]; Protein-Ligand Ratio 1:1) was 2. For the same molecule, the “ligand binding stoichiometry, CYP121 Monomer” value (CYP121 [4]; Protein-Ligand Ratio 1:1) was 1, the “Monomer (%) of CYP121” value (CYP121 [4]; Protein-Ligand Ratio 1:25) was 0% and the “ligand binding stoichiometry, CYP121 Dimer” value (CYP121 [4]; Protein-Ligand Ratio 1:25) was 2. The “ligand binding stoichiometry, CYP121 Monomer” value (CYP121 [4]; Protein-Ligand Ratio 1:25) was 1.

For `Oc1ccc(CNc2[nH]nc(-c3ccc(O)cc3)c2-c2ccc(O)cc2)cc1` [26a, 4,4′-(5-((4-Hydroxybenzyl)amino)-1H-pyrazole-3,4-diyl)diphenol], the “Binding Mode, CYP144TR” value (CYP144TR) was “N”, the MIC90 (Mtb H37Rv) was “N” and the “Binding Mode, CYP121” value (CYP121 [1]) was “N”. The “app SR (IC50/KD)” value (CYP1A) was greater than 4, the “LE (ligand efficiency)” value (CYP121 [3]) was 0.25 and the “Monomer (%) of CYP121” value (CYP121 [4]; Protein-Ligand Ratio 1:0.5) was 14%. The “ligand binding stoichiometry, CYP121 Dimer” value (CYP121 [4]; Protein-Ligand Ratio 1:0.5) was 1, the “ligand binding stoichiometry, CYP121 Monomer” value (CYP121 [4]; Protein-Ligand Ratio 1:0.5) was 0 and the “Monomer (%) of CYP121” value (CYP121 [4]; Protein-Ligand Ratio 1:1) was 29%. For the same molecule, the “ligand binding stoichiometry, CYP121 Dimer” value (CYP121 [4]; Protein-Ligand Ratio 1:1) was 1, the “ligand binding stoichiometry, CYP121 Monomer” value (CYP121 [4]; Protein-Ligand Ratio 1:1) was 0 and the “Monomer (%) of CYP121” value (CYP121 [4]; Protein-Ligand Ratio 1:25) was 14%. For the same molecule, the “ligand binding stoichiometry, CYP121 Dimer” value (CYP121 [4]; Protein-Ligand Ratio 1:25) was 2, the “ligand binding stoichiometry, CYP121 Monomer” value (CYP121 [4]; Protein-Ligand Ratio 1:25) was 1 and the “Binding Mode, CYP143” value (CYP143) was “N”.

`Nc1[nH]nc(-c2ccc(O)cc2)c1-c1ccc(O)cc1` [compound 5, 4,4′-(5-Amino-1H-pyrazole-3,4-diyl)diphenol] was tested, and the “Binding Mode, CYP125” value (CYP125) was “N”, the “Binding Mode, CYP144TR” value (CYP144TR) was “N” and the MIC90 (Mtb H37Rv) was “N”. For the same molecule, the “Binding Mode, CYP121” value (CYP121 [1]) was “N”, the “LE (ligand efficiency)” value (CYP121 [3]; Gibbs free energy of binding to CYP121 divided by number of heavy atoms (ΔG/HA)) was 0.30 and the “Binding Mode, CYP143” value (CYP143) was “N”.

B1: Mycobacterium tuberculosis CYP121 (Rv2276), His6-tagged construct (enzyme)
chain: MTATVLLEVPFSARGDRIPDAVAELRTREPIRKVRTITGAEAWLVSSYALCTQVLEDRRFSMKETAAAGAPRLNALTVPPEVVNNMGNIADAGLRKAVMKAITPKAPGLEQFLRDTANSLLDNLITEGAPADLRNDFADPLATALHCKVLGIPQEDGPKLFRSLSIAFMSSADPIPAAKINWDRDIEYMAGILENPNITTGLMGELSRLRKDPAYSHVSDELFATIGVTFFGAGVISTGSFLTTALISLIQRPQLRNLLHEKPELIPAGVEELLRINLSFADGLPRLATADIQVGDVLVRKGELVLVLLEGANFDPEHFPNPGSIELDRPNPTSHLAFGRGQHFCPGSALGRRHAQIGIEALLKKMPGVDLAVPIDQLVWRTRFQRRIPERLPVLW
In the case of B1, the “stoichiometry N” value (native MS) is reported as 2.
